Consider 1 compound from patent publication US20250353891A1 (MEDIMMUNE LIMITED, priority 2022, published 2025).

Data set [1] can be described thus: Proteolytic resistance to FasSSIF/Pancreatin. Type of data set: in vitro ADME. To be noted: simulated intestinal fluid. In outline: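 Peptide (1.0 mg) in pre-warmed FasSSIF, proteolysis started with fresh FasSSIF/USP Pancreatin and held at 37 °C. Aliquots at 0, 5, 10, 15, 30 min quenched in 10% TFA; remaining intact peptide estimated by RP-HPLC peak area, UV 210 nm.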

In another data set the target is T1, recombinant Neprilysin (Homo sapiens, UniProt P08473).
T1 construct: purchased R&D Systems 1182-ZNC-010
T1 sequence (P08473 52-750 limits assumed): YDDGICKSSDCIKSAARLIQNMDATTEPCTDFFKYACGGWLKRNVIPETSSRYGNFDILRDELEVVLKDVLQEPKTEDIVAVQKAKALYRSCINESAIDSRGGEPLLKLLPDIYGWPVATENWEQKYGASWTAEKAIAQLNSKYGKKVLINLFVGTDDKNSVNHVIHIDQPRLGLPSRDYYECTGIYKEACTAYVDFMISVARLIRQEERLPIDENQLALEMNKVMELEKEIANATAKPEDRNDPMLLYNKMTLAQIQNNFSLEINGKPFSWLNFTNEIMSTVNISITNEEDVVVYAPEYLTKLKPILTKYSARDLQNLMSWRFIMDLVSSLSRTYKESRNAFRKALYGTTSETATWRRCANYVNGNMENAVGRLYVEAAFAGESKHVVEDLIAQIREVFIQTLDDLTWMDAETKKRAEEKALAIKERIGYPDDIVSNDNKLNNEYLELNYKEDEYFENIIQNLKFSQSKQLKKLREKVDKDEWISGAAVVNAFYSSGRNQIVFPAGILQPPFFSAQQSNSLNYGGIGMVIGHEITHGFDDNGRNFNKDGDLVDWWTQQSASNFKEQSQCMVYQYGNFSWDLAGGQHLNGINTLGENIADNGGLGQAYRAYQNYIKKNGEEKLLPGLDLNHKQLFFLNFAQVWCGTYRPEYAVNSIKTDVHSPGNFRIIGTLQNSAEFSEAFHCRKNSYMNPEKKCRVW
Put plainly: Proteolytic resistance to neprilysin. Format: in vitro ADME. To be noted: pH 8.3. In a few lines: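 Peptide stock (~250 μM) mixed 1:1 with neprilysin stock (100 μg/mL) in Tris/NaCl/NaHCO3 buffer, pH 8.3, at 37° C. Aliquots at 0, 30 min, 1, 2, 4, 24 h quenched in TFA/acetonitrile. Intact peptide estimated by RP-HPLC peak area at 210 nm.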

The target in data set [2] is human glucagon receptor (hGCGR) (Homo sapiens, UniProt P47871). The data set is described as follows: cAMP production (HTRF) in CHO cells expressing hGCGR. Format: cell-based. Also on record: expressed in transfected cells. Conditions: Table 6, peptides modified at position 17; cAMP in CHO hGCGR cells; geometric mean; read-out: hGluc-R EC50. In a few lines:
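Potency values represent EC50 from 4-parameter logistic curves of HTRF % Delta F signal. Receptor-expressing CHO cells (hGCGR 2×10^5 cells/mL, hGLP-1R 1×10^5 cells/mL) were exposed for 30 min at room temperature before two-step cAMP detection.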

Starred links: 1 amine or outer side, 2 acyl side, 3 side chain; linkers in the order of their positions; H or OH if unused. Non-standard residues stand in square brackets, D forms with d. Residues, ends and D or L forms follow the SMILES beside them. Groups on a side chain read outwards from the residue. *: point of attachment. C18 diacid = O=C(O)CCCCCCCCCCCCCCCCC(=O)*; γGlu = O=C(O)[C@H](CCC(=O)[*:2])N[*:1]; αMeF = C[C@](N)(Cc1ccccc1)C(=O)O; Aib = CC(C)(N)C(=O)O

human glucagon receptor (hGCGR), sequence (P47871 26-477): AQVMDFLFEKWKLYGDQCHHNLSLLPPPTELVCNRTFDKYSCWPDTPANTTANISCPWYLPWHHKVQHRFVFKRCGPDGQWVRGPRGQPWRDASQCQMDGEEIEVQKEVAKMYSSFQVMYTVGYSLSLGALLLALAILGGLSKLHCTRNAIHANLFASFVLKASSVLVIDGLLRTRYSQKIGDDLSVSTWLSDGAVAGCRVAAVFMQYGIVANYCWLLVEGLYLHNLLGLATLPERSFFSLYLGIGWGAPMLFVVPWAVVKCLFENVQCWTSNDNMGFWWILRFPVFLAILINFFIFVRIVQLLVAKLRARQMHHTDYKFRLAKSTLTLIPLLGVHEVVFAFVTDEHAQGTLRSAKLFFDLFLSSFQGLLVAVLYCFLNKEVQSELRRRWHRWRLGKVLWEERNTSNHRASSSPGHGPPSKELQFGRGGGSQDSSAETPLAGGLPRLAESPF

For orientation: amount remaining means the share of the starting amount still present when the sample was taken. The term EC50 denotes the concentration at which the effect is half-maximal. In data set [1], `CC[C@H](C)[C@H](NC(=O)[C@H](Cc1c[nH]c2ccccc12)NC(=O)[C@H](CCC(=O)O)NC(=O)[C@@H](NC(=O)[C@](C)(Cc1ccccc1)NC(=O)[C@H](CC(=O)O)NC(=O)[C@H](CCC(N)=O)NC(=O)[C@H](C)NC(=O)[C@H](C)NC(=O)[C@H](CCCCNC(=O)CC[C@H](NC(=O)CCCCCCCCCCCCCCCCC(=O)O)C(=O)O)NC(=O)[C@H](CO)NC(=O)[C@H](CC(=O)O)NC(=O)[C@H](CC(C)C)NC(=O)[C@](C)(Cc1ccccc1)NC(=O)[C@H](CCCCN)NC(=O)[C@H](CO)NC(=O)[C@@H](NC(=O)[C@H](CC(=O)O)NC(=O)[C@H](CO)NC(=O)[C@@H](NC(=O)[C@](C)(Cc1ccccc1)NC(=O)[C@H](CO)NC(=O)CNC(=O)[C@H](Cc1c[nH]cn1)NC(=O)C(C)(C)NC(=O)[C@@H](N)Cc1c[nH]cn1)[C@@H](C)O)C(C)C)C(C)C)C(=O)N[C@@H](C)C(=O)N[C@@H](CC(N)=O)C(=O)N[C@H](C(N)=O)[C@@H](C)O` [Peptide 7] (H-H[Aib]HGS[αMeF]TSDVSK[αMeF]LDSK([γGlu-C18 diacid])AAQD[αMeF]VEWIANT-NH2; N-terminus assumed) showed a fraction remaining at 5 min, 3.3 mg/mL of 96%; an amount remaining at 10 min, 3.3 mg/mL of 98%; a fraction remaining at 0.25 h, 3.3 mg/mL of 96%; an amount remaining at 0.5 h, 3.3 mg/mL of 94%. Moreover, at recombinant Neprilysin (isolated enzyme neprilysin), the share remaining at 0.5 h came out at 100%, the amount remaining at 2 h came out at 100%, the amount remaining at 4 h worked out at 97% and the fraction remaining at 24 h turned out to be 84%. Moreover, the “% intact peptide over time” value on recombinant Neprilysin was 100%. Besides, the EC50 in data set [2] is 0.0307 nM.
